3 compounds from PubChem BioAssay AID1117339 can be followed below.

The structures appear in SMILES notation. Calls of active or inactive are those of the source. How the calls were made is not given here.

Broadly, the IC50 is the concentration at which inhibition is half-maximal.

This assay concerns HCT116 viability, CellTiter-Glo, GSK3B-pretreated. The assay can be described thus: HCT116 cell viability decrease, GSK3B pretreatment – CellTiter-Glo, IC50, dose response (AID 1117339). A general note: ATP-based viability assays read luminescence as a measure of living cells.

With `CCCCCCCCCCCCCC[N+](C)(C)C`, the IC50 was 754 nM.

For `OCCN1CCN(CC/C=C2/c3ccccc3Sc3ccc(C(F)(F)F)cc32)CC1`, the IC50 is 2890 nM.

For `Cc1ccc([N+](=O)[O-])[c]2c1[O][Hg]2`, the IC50 was 2220 nM (inactive).
